{
  "source": "patent US11096910B2",
  "about": "“Metabolically robust analogs of CYP-eicosanoids for the treatment of cardiac disease” (OMEICOS THERAPEUTICS GMBH, priority 2015, dated 2021)",
  "key": {"[1]": {"system": "male B16 mice", "assay": "Atrial fibrillation induced by programmed electrical stimulation in a mouse model of moderate cardiac hypertrophy", "format": "in vivo", "experimental": "Study design: To gain insight into in-vivo effect of synthetic 17,18-EEQ-agonists, atrial fibrillation studies were performed in male B16 mice as described in Westphal, C. et al., PLoS ONE. 2013, 8(8): e73490. Briefly, moderate cardiac hypertrophy was induced by continuous infusion of isoproterenol via subcutaneously implanted osmotic minipumps (Alzet) at a rate of 40 mg/kg/d for two weeks. After two weeks of treatment, ECG and electrophysiological data were recorded. Programmed electrical stimulation (PES) was performed in the right atrium or right ventricle using a digital electrophysiology lab (EP Tracer; CardioTek) to determine refractory periods and arrhythmia inducibility. Atrial arrhythmias were defined as fast (>800 bpm) electrical activity in the right atrial electrograms, with ECG P waves different to normal sinus rhythm and subsequent fast, but physiological activation of the ventricles (ECG R wave and right ventricular electrograms similar to normal sinus rhythm). Atrial fibrillation was defined as fast, irregular activity in the right atrial electrograms with irregular conduction to the ventricles (high variability of R—R intervals). Ventricular arrhythmias were defined by fast (>800 bpm) activity originating from the ventricular myocardium (change in morphology of ECG R waves and local right ventricular electrograms compared to normal sinus rhythm). During inhalation anesthesia with isoflurane (2% with 360 ml/min air flow; Univentor 400 anesthesia unit), the animals' body temperature was kept constant at 37° C. using a homeothermic blanket control unit (Hugo Sachs Elektronik, Harvard Apparatus) with rectal temperature control. After preparation of the right jugular vein, a 2 French octapolar electrophysiology catheter (CIB'ER mouse cath; NuMed) was placed in the right heart, including atrium and ventricle. PES was performed using a standardized protocol that included trains of 10 basal stimuli (S1) followed by up to 3 extra stimuli (S2-S4), delivered with a coupling interval decreasing in steps of 5 ms until ventricular or atrial refractoriness was reached. The stimulation procedures were repeated at three different basal cycle lengths (100 ms, 90 ms, 80 ms) with each animal. Occurrence and duration of inducible arrhythmias were documented. Only stimulation protocols with reproducible arrhythmias longer than five consecutive beats in ventricle and episodes longer than 350 ms in the atria were considered positive. “Arrhythmia inducibility” was calculated as the percentage of effective (positive) out of total protocols applied. Accordingly, the arrhythmia inducibility of individual animals could take a value of 0, 33, 66 or 100%. […]"}, "[2]": {"assay": "Aqueous solubility", "format": "physicochemical", "details": "for solubility at 24 h: deionised water, 37 °C, pH 5.9, water, thermodynamic from solid, pH 5.90, 24 hours agitation", "experimental": "Known amounts of the compounds were suspended by agitation for 24 hours. The filtrates were isolated and content of the appropriate compounds was determined by HPLC analysis."}, "[3]": {"system": "isolated mouse hearts of 12-14 week old male C57BL6/n animals", "assay": "Ischemia-reperfusion of isolated Langendorff-perfused mouse hearts (Example 11)", "experimental": "Study design: To gain insight into the cardioprotective effects of synthetic 17,18-EEQ-agonists, ischemia-reperfusion studies were performed in isolated mouse hearts of 12-14 week old male C57BL6/n animals. Briefly, mice were anesthetized with i.p. injected pentobarbital/heparin, hearts were rapidly removed and perfused in a Langendorff apparatus. Excised hearts were put in ice-cold Krebs-Henseleit buffer and aortas were cannulated. Modified Krebs-Henseleit buffer for retrograde perfusion contained 118 mM NaCl, 3.5 mM KCl, 1.3 mM MgSO4, 2.5 mM CaCl2, 24.7 mM NaHCO3, 1.4 mM KH2PO4 and 11 mM glucose, was aerated with 95% O2-5% CO2 and kept at constant temperature of 37° C. and pH 7.3. Perfusion pressure was adjusted to 80 mmHg and a latex balloon connected to a pressure transducer was inserted in the left ventricle through the left atrium. Hearts were perfused with buffer for a 15 minutes stabilisation period, followed by 10 minutes perfusion with either the agonistic analog Comp-02 (100 nM) or vehicle (0.9% NaCl in water). Afterwards hearts were subjected to 35 minutes global no-flow ischemia followed by 40 minutes of reperfusion. Compound or vehicle perfusion was kept constant during the reperfusion time. To analyse recovery of contractile function the left ventricular developed pressure (LVdP) at different time points during reperfusion was measured and expressed as percentage of pre-ischemic LVdP. Exclusion criteria for the hearts were: (i) a LVdP below 60 mmHg at the end of the stabilisation phase (baseline measurement), (ii) a heart rate below 260 bpm, (iii) coronary flow below 1.5 or over 4 ml/min and finally (iv) severe sustained arrhythmias during the stabilisation phase. The results are presented in FIG. 1 and expressed as mean±SEM percentage of pre-ischemic LVdP. Data were analysed by two-tailed unpaired Student's t test and considered significant if p<0.05*."}, "[4]": {"details": "single i.v. injection 2 mg/kg, vs vehicle"}},
  "note": "Read-outs that look alike come from different tables or passages of the source.",
  "data": [
    {"smiles": "CNC(=O)C(=O)NCCCC/C=C\\CCCCCCCOCC(=O)O", "note": "[Comp-02, 2-((13-(2-(methylamino)-2-oxoacetamido)tridec-8(Z)-en-1-yl)oxy)acetic acid]", "values": [
      {"measurement": "obvious negative side effects", "setting": "[1]; single i.v. bolus injection, 2 mg/kg body weight", "result": "did not induce any obvious negative side effects"},
      {"measurement": "reduction of the inducibility of sustained arrhythmia episodes", "setting": "[1]; [4]", "result": 62, "unit": "%"},
      {"measurement": "severity of induced atrial fibrillation episodes", "setting": "[1]; [4]", "result": "significantly reduced"},
      {"measurement": "sum of totally induced atrial fibrillation episodes (atrial fibrillation burden)", "setting": "[1]; [4]", "result": "reduced significantly"},
      {"measurement": "solubility in deionised water relative to Comp-06", "setting": "[2]; 37° C.", "result": "~10", "unit": "×"},
      {"measurement": "solubility at 24 h", "setting": "[2]; read-out: Average solubility at 37° C.", "result": 68, "unit": "µg/mL"},
      {"measurement": "solubility at 24 h", "setting": "[2]; read-out: Highest solubility value at 37° C.", "result": 75, "unit": "µg/mL"},
      {"measurement": "solubility at 24 h", "setting": "[2]; read-out: Lowest solubility value at 37° C.", "result": 59, "unit": "µg/mL"},
      {"measurement": "functional recovery, LVdP as percentage of pre-ischemic LVdP", "setting": "[3]; 100 nM, 10 minutes reperfusion", "result": 18, "unit": "%"},
      {"measurement": "functional recovery, LVdP as percentage of pre-ischemic LVdP", "setting": "[3]; 100 nM, 40 minutes reperfusion", "result": 59, "unit": "%"},
      {"measurement": "post-ischemic recovery of contractility function, in words", "setting": "[3]; 100 nM, vs control group", "result": "significantly improved post-ischemic recovery of contractility function"},
      {"measurement": "obvious negative side effects", "setting": "[3]; continuous infusion of 100 nM", "result": "did not induce any obvious negative side effects"}
    ]}
  ]
}
